For the assay, the system named is A431 cells. The assay can be described thus: MTT cytotoxicity, 6-hour pretreatment system. The format is cell-based. As to conditions: Homo sapiens, A-431, read-out: IC50 (50% growth inhibition), 6 hours exposure, washing, additional 72 hours incubation.

Results on one molecule are retold here after patent US20020197261A1, “Therapeutic agent/ligand conjugate compositions, their methods of synthesis and use” (priority 2001, published 2002).

Protocol: One hundred microliter of growth medium suspending 1000-2000 cells per well was plated out in 96-well plates and incubated for 2 days to allow the cells to attach. Various dilutions of the drug or conjugates were added to each well and the plates were incubated for 72 hours at 37° C. Alternatively, a 6-hour pretreatment protocol was used. Cells were exposed to various concentrations of the drug or conjugate for 6 hours at 37 ° C., and then washed twice with the fresh culture medium. The cells were incubated for additional 72 hours. At the end of the incubation period, twenty microliters of MTT solution from Promega Cell Proliferation Assay kit (Madison, Wis.) were added to the wells. The microplates were then incubated for 1 hour at 37° C. Absorbance was measured at 490 nm using a microplate reader (Molecular Devices Corp, Sunnyvale, Calif.). The data reported represent the means of quadruplicate measurement and the standard errors of the mean were less than 15%.

The term IC50 denotes the concentration that gives 50% inhibition. Consider `COc1cccc2c1C(=O)c1c(O)c3c(c(O)c1C2=O)C[C@@](O)(C(=O)CO)C[C@@H]3O[C@H]1C[C@H](N)[C@H](O)[C@H](C)O1` [Adr, Adriamycin], for which the IC50 came to 17.7 µM.
